From patent publication US8252912B2, “Transcriptional repression of sodium-iodide symporter in thyroid carcinoma” (University of Kentucky Research Foundation, priority 2007, dated 2012) come the findings set out here.

In series [1] the test system is factor(s) in KAK-1 nuclear extract binding to Probe A (NIS-repressor). Briefly: EMSA competition of cold double-stranded oligonucleotides against radiolabeled Probe A with KAK-1 nuclear extract. To be noted: excess (60×) cold competitor. Also noted: species or system human. The procedure: Nuclear extracts were prepared using the NucBuster Protein Extraction kit from Novagen/EMD Biosciences, Inc. (La Jolla, Calif.) following its instructions. The radioactive EMSA probes were end-labeled using T4 polynucleotide kinase in the presence of γ-P^32-ATP (GE Healthcare Bio-Sciences Corp., Piscataway, N.J.), followed by removal of the free radioactive ATP with the QIAquick Nucleotide Removal Kit from Qiagen (Valencia, Calif.). EMSA reaction was performed using the EMSA Accessory Kit (Novagen) following its instructions. Briefly, 1 μL 10 mM DTT, 5 μL 4×EMSA buffer, 1 μL Salmon sperm DNA and 1 μL poly dI:dC were mixed with 3 μL nuclear extracts, 1 μL radioactive EMSA probe and water to make up to 18 μL. In some reactions, antibodies or cold competitive probes were added. The mixtures were incubated on ice for 30 min, Then 2 μL loading dye were added to each reaction tubes, and the samples were loaded onto 7.5% PAGE/0.5×TBE, and run overnight. The gel was dried, exposed to X-ray films that were developed 2-3 days later. The competitive EMSA probes were prepared by annealing the sense and anti-sense single strand synthetic oligos respectively, which are listed in Table 2.
Background: In EMSA bound probe runs differently from free probe, usually more slowly.

A further series concerns hNIS mRNA in KAK-1 cells. Briefly: qRT-PCR assay of hNIS mRNA levels after treatments in KAK-1 cells. Particulars: for Stimulation of hNIS mRNA transcription (in words): qRT-PCR; for Relative hNIS mRNA level: relative to control = 1 (4 copies/10^9 18s RNA), azaC 0.5 μM, NaB 1 mM, CHX 10 μg/ml, 3-AB 7.5 mM, PJ34 30 μmole/liter. It counts as cell-based, human. Here is the method: The basal media and supplements were all from GIBCO/Invitrogen Corporation, Grand Island, N.Y. All thyroid cell lines were grown in phenol red-free RPMI 1640 (GIBCO) with 10% FBS, 100 nmol/L sodium selenite, and 0.1 nmol/L bovine TSH (Sigma) at 37° C. in 5% CO2. KAK-1 cells were also cultured in high-glucose, phenol red-free RPMI 1640 supplemented with 10% FBS, 100 nM sodium selenite, 5 pIU/ml human TSH, 0.1 mM non-essential amino acids, 1 mM sodium pyruvate at 37° C. in 5% CO2. Cell culture media was replenished every 2 days. All chemical reagents were obtained from Sigma Chemical Company (St. Louis, Mo.). In addition, PJ34 was obtained from CalBiochem/EMD Biosciences, Inc. (La Jolla, Calif.) and used at 30 μmole/liter. Cycloheximide (CHX), 3-aminobenzamide (3-AB), 5-azacytidine (azaC), and sodium butyrate (NaB) were from Sigma-Aldrich Chemical Company (St. Louis, Mo.) and used at 10 μg/ml, 7.5 mM, 0.5 μM, 1 mM respectively.
Total RNA was isolated using TRIzol reagent (Invitrogen Corp., Carlsbad, Calif.), genomic DNA contamination removed using DNA-free kit (Ambion Inc., Austin, Tex.), and cDNA synthesized from 2 μg total RNA using Advantage RT-for-PCR kit (BD Biosciences Clontech, Palo Alto, Calif.) with random hexamer primers. TaqMan Universal PCR Master Mix (Applied Biosystems, Foster City, Calif.) and Assay-on-Demand Gene Expression Products (Hs00166567_m1 for hNIS mRNA and Hs999999-1_s1 for 18sRNA, respectively; Applied Biosystems) were used for RNA quantitation. The hNIS fragment (1446-1865, +1 is translation initiation codon “A”) was PCR amplified using NIS-F (5′-ctgcgtggctctctcagtc-3′ SEQ ID NO:6) and NIS-R (5′-ccctccagctccttctgc-3′ SEQ ID NO:7), followed by ligation into pCR2.1 vector (Invitrogen). The same procedure was followed using 18s-F (5′-atggtgaccacgggtgacg-3′ SEQ ID NO:8) and 18s-R (5′-[…]-3′ SEQ ID NO:9) for 18s qPCR standard. DNA preparations of these two plasmids were quantitated, diluted and used as quantitation standards in qPCR measurements.
The qRT-PCR assay was used to measure hNIS mRNA levels after different treatments in KAK-1 cells.

The test system of series [2] is hNIS promoter in KAK-1 cells. Briefly: Luciferase reporter assay with pGL3-basic, F4-pGL3-basic and F4Δ-pGL3-basic constructs in KAK-1 cells, PJ34 treatment. It is filed as cell-based, human. Particulars: PJ34 at 30 μM for 2 days, pGL3-basic, F4-pGL3-basic, F4Δ-pGL3-basic, p<0.05, t-test. Here is the method:
For the transient transfection assays to monitor the effects of PJ34, PJ34 was administered at 30 μM one hour before DNA transfection mixtures were added to the KAK-1 cultures. Twenty-four hours later, transfection mixtures were replaced with fresh media containing PJ34. Luciferase and Rennilar activities were determined 24 hr later. Luciferase activity was normalized to Rennilar activity to account for the variations in transfection efficiency. Triplicate transfections were performed and data were presented as mean±SD.
PJ34 is a potent inhibitor for PARP-1. Its effect on hNIS transcription was determined using luciferase reporter assay with pGL3-basic, F4-pGL3-basic (containing hNIS promoter from −1252 to −348 bp) and F4Δ-pGL3-basic constructs (the same as F4-pGL3-basic but with deletion of sequence from −667 to −588 bp, encompassing R—NRBS).
For orientation: Reporter assays use an easily measured gene product as a stand-in for the process of interest.

Series [3] has as its system human NIS promoter region (Luc-1/pGL3-basic) in KAK-1 cells. Briefly: Transient transfection luciferase reporter assay, Luc-1/pGL3-basic (hNIS promoter -1667 to -348 bp) in KAK-1 cells, protein synthesis inhibitors. It counts as cell-based. Particulars: 2 days, Anisomycin at 0.4, 1 μg/ml, Emetine at 1, 2 μg/ml, Puromycin up to highest concentration used (1 μg/ml). The procedure: The pGL3-basic plasmid, together with phRG-B plasmid (as transfection efficiency control) and pUC-18 (as carrier) were transiently transfected into KAK-1 cells cultured under basal conditions supplemented with 0.01% DMSO (as solvent control), Anisomycin (0.1, 0.4, 1 μg/ml), Emetine (0.5, 1, 2 μg/ml) and Puromycin (0.1, 0.4, 1 μg/ml) respectively for 2 days. The cells were then lysed and firefly luciferase activity and Renilla luciferase activity were quantitated using a luminometer (FIG. 3).
Luc-1/pGL3-basic reporter construct (Luc-1) was prepared containing the promoter region of the human sodium/iodide symporter gene (see Venkataraman et al. 1998 Thyroid 8:63-69 and U.S. Pat. No. 6,015,376; Genebank Accession Number: AF059566) from −1667 to −348 bp (FIG. 2) inserted into pGL3-basic luciferase vector at KpnI and HindIII site upstream of the luciferase coding sequence. The Luc-1/pGL3-basic construct, together with phRG-B plasmid (as transfection efficiency control) and pUC-18 (as carrier) were transiently transfected into KAK-1 cells cultured under basal conditions supplemented with 0.01% DMSO (as solvent control), Anisomycin (0.1, 0.4, 1 μg/ml), Emetine (0.5, 1, 2 μg/ml) and Puromycin (0.1, 0.4, 1 μg/ml) respectively for 2 days. The cells were then lysed and firefly luciferase activity and Renilla luciferase activity were quantitated using luminometer (FIG. 4).

Series [4] concerns factors in KAK-1 nuclear extract binding to NRBS (Probe A). Briefly: EMSA with radiolabeled Probe A and nuclear extract from treated KAK-1 cells. To be noted: nuclear extract from KAK-1 cells treated with azaC 0.5 μM, sodium butyrate 1 mM, CHX 10 μg/ml or combinations. It is filed as cell-based, human.
Description: Electrophoretic mobility shift assay was performed using radio-labeled NRBS (−684 to −565) oligonucleotides as a probe and nuclear extracts from KAK-1 cells cultured under basal conditions (not expressing hNIS mRNA), as well as with azaC/NaB and azaC/CHX treatments (shown in FIG. 8 on far left).

“Comp-1.3: double-stranded competitive EMSA probe, −643 to −620 of hNIS promoter, Seq ID No:81/82 (chain 1 AGCCTCAATTTCCCCACCTGTCAA; chain 2 TTGACAGGTGGGGAAATTGAGGCT; chemistry not given here)”: the “Competition against radiolabeled Probe A in EMSA (gel-shift signal)” value (from here on “Competition … (gel-shift signal)”) in series [1] is “effectively competed against the radiolabeled Probe A”.

As for “Comp-1.4: double-stranded competitive EMSA probe, −638 to −615 of hNIS promoter, Seq ID No:83/84 (chain 1 CAATTTCCCCACCTGTCAACAGCA; chain 2 TGCTGTTGACAGGTGGGGGAAATTG; chemistry not given here)”, the “Competition … (gel-shift signal)” value in series [1] is given as “fail to compete against the radiolabeled Probe A”.

Consider `CN(C)CC(=O)Nc1ccc2[nH]c(=O)c3ccccc3c2c1` [PJ34], for which, in the series with hNIS mRNA in KAK-1 cells, the “Stimulation of hNIS mRNA transcription (in words)” value is “stimulate hNIS mRNA more than CHX alone” and the “Relative hNIS mRNA level” value worked out at 26. Besides, the “Normalized luciferase activity with versus without PJ34 treatment” value in series [2] is reported as “stimulated luciferase activity from all the constructs”.

As for `COc1ccc(C[C@H]2NC[C@H](O)[C@H]2OC(C)=O)cc1` [Anisomycin], in series [3], the “Normalized luciferase activity driven by human NIS promoter region (Luc-1/pGL3-basic), compared with pGL3-basic vector” value is “dramatically stimulated the normalized luciferase activity”.

Turning to “Comp-1.2: double-stranded competitive EMSA probe, −648 to −625 of hNIS promoter, Seq ID No:79/80 (chain 1 TTTTGAGCCTCAATTTCCCCACCT; chain 2 AGGTGGGGAAATTGAGGCTCAAAA; chemistry not given here)”, the “Competition … (gel-shift signal)” value in series [1] was “effectively competed against the radiolabeled Probe A”.

For the molecule `C[C@@H]1C[C@@H]([C@H](O)CC2CC(=O)NC(=O)C2)C(=O)[C@@H](C)C1` [CHX, Cycloheximide], in the series on hNIS mRNA in KAK-1 cells, the “Relative hNIS mRNA level” value amounted to 4.

For “Comp-1.1: double-stranded competitive EMSA probe, −653 to −630 of hNIS promoter, Seq ID No:77/78 (chain 1 GCCCTTTTTGAGCCTCAATTTCCC; chain 2 GGGAAATTGAGGCTCAAAAAGGGC; chemistry not given here)”, the “Competition … (gel-shift signal)” value in series [1] is “fail to compete against the radiolabeled Probe A”.

Consider `CC[C@H]1CN2CCc3cc(OC)c(OC)cc3[C@@H]2C[C@@H]1C[C@H]1NCCc2cc(OC)c(OC)cc21` [Emetine], for which the “Normalized luciferase activity driven by human NIS promoter region (Luc-1/pGL3-basic), compared with pGL3-basic vector” value in series [3] is listed as “dramatically stimulated the normalized luciferase activity”.

As for `NC(=O)c1cccc(N)c1` [3-AB, 3-aminobenzamide], in the series with hNIS mRNA in KAK-1 cells, the “Stimulation of hNIS mRNA transcription (in words)” value was “not effective in stimulating hNIS mRNA transcription” and the “Relative hNIS mRNA level” value was found to be 1.

For the molecule `Nc1ncn([C@@H]2O[C@H](CO)[C@@H](O)[C@H]2O)c(=O)n1` [azaC, 5-azacytidine], in the series with hNIS mRNA in KAK-1 cells, the “Relative hNIS mRNA level” value is reported as 5. Besides, the “Effect of cell treatment on EMSA gel shift pattern (Probe A)” value in series [4] was “gel shift pattern remained the same”.

Regarding `COc1ccc(C[C@H](N)C(=O)N[C@H]2[C@@H](O)[C@H](n3cnc4c(N(C)C)ncnc43)O[C@@H]2CO)cc1` [Puromycin], the “Normalized luciferase activity driven by human NIS promoter region (Luc-1/pGL3-basic), compared with pGL3-basic vector” value in series [3] is on record as “did not stimulate the luciferase activity much”.

B1: Comp-2: double-stranded competitive EMSA probe, −633 to −595 of hNIS promoter, Seq ID No:85/86 (nucleic acid)
chain 1: TCCCCACCTGTCAACAGCAGACAGTGACAGCTGTGATCA
chain 2: TGATCACAGCTGTCACTGTCTGCTGTTGACAGGTGGGGA
modifications: chemistry not given here
Take B1: the “Competition … (gel-shift signal)” value in series [1] is “fail to compete against the radiolabeled Probe A”.

B2: Comp-1: double-stranded competitive EMSA probe, −653 to −615 of hNIS promoter, Seq ID No:75/76 (nucleic acid)
chain 1: GCCCTTTTTGAGCCTCAATTTCCCCACCTGTCAACAGCA
chain 2: TGCTGTTGACAGGTGGGGAAATTGAGGCTCAAAAAGGGC
modifications: chemistry not given here
For B2, in series [1], the “Competition … (gel-shift signal)” value is “completely erased the characteristic gel-shift signal”.

B3: Comp-0.9: double-stranded competitive EMSA probe, −660 to −627 of hNIS promoter, Seq ID No:73/74 (nucleic acid)
chain 1: GTGACATGCCCTTTTTGAGCCTCAATTTCCCCAC
chain 2: GTGGGGAAATTGAGGCTCAAAAAGGGCATGTCAC
modifications: chemistry not given here
As to B3, the “Competition … (gel-shift signal)” value in series [1] is reported as “fail to compete against the radiolabeled Probe A”.
